In ChEMBL document CHEMBL3885881, “DrugMatrix”:

Organism: Rattus norvegicus
Experiment: DrugMatrix - Regimen: Daily Repeat
Format: toxicity, organism-based, Sprague-Dawley
Design: regimen Daily Repeat, gender Male, age 6-8 weeks
Conditions: in vivo, iv, 0 mg/kg, dose level Control, vehicle 100 % SALINE
[1] = 72 h, tissue Plasma, time 3 day
[2] = 120 h, tissue Blood, time 5 day
[3] = 120 h, tissue Plasma, time 5 day

LIPOPOLYSACCHARIDE E. COLI O55:B5
ABSOLUTE BASOPHIL (72 h, tissue Blood, time 3 day): 0 CELLS/uL
ABSOLUTE EOSINOPHIL (72 h, tissue Blood, time 3 day): 33.67 CELLS/uL
ABSOLUTE LYMPHOCYTE (72 h, tissue Blood, time 3 day): 12123.5 CELLS/uL
ABSOLUTE MONOCYTE (72 h, tissue Blood, time 3 day): 243.5 CELLS/uL
ABSOLUTE SEGMENTED NEUTROPHIL (72 h, tissue Blood, time 3 day): 1282.67 CELLS/uL
BASOPHIL (72 h, tissue Blood, time 3 day): 0%
EOSINOPHIL (72 h, tissue Blood, time 3 day): 0.33%
ERYTHROCYTE COUNT (72 h, tissue Blood, time 3 day): 5.18 x10E6/uL
HEMATOCRIT (72 h, tissue Blood, time 3 day): 32.63%
LEUKOCYTE COUNT (72 h, tissue Blood, time 3 day): 13.68 x10E3/uL
LYMPHOCYTE (72 h, tissue Blood, time 3 day): 88.67%
MEAN CORPUSCULAR HEMOGLOBIN (72 h, tissue Blood, time 3 day): 24.98 pg
NEUTROPHIL (72 h, tissue Blood, time 3 day): 9.17%
NUCLEATED RED BLOOD CELLS (72 h, tissue Blood, time 3 day): 0.17 /100WBC
PLATELET COUNT (72 h, tissue Blood, time 3 day): 1114.5 x10E3/uL
ALANINE AMINOTRANSFERASE [1]: 46.17 u/L
ALKALINE PHOSPHATASE [1]: 374.67 u/L
ASPARTATE AMINOTRANSFERASE [1]: 89.33 u/L
BLOOD UREA NITROGEN [1]: 14.83 mg/dL
CARBON DIOXIDE [1]: 25.67 mmol/L
CHOLESTEROL [1]: 63.5 mg/dL
CREATINE PHOSPHOKINASE [1]: 494.67 u/L
CREATININE [1]: 0.17 mg/dL
LACTATE DEHYDROGENASE [1]: 269.33 u/L
PHOSPHORUS [1]: 11.27 mg/dL
POTASSIUM [1]: 5.85 MEQ/L
TOTAL BILIRUBIN [1]: 0.18 mg/dL
TOTAL PROTEIN [1]: 5.87 G/DL
URIC ACID [1]: 1.28 mg/dL
ABSOLUTE BASOPHIL [2]: 0 CELLS/uL
ABSOLUTE EOSINOPHIL [2]: 24.67 CELLS/uL
ABSOLUTE LYMPHOCYTE [2]: 11832.83 CELLS/uL
ABSOLUTE MONOCYTE [2]: 279.67 CELLS/uL
ABSOLUTE SEGMENTED NEUTROPHIL [2]: 1446.17 CELLS/uL
BASOPHIL [2]: 0%
EOSINOPHIL [2]: 0.17%
ERYTHROCYTE COUNT [2]: 5.61 x10E6/uL
HEMATOCRIT [2]: 35.02%
HEMOGLOBIN [2]: 13.82 G/DL
LEUKOCYTE COUNT [2]: 13.58 x10E3/uL
LYMPHOCYTE [2]: 87.67%
MEAN CORPUSCULAR HEMOGLOBIN [2]: 24.68 pg
MONOCYTE [2]: 2%
NEUTROPHIL [2]: 10.17%
NUCLEATED RED BLOOD CELLS [2]: 0 /100WBC
PLATELET COUNT [2]: 1178.17 x10E3/uL
ALANINE AMINOTRANSFERASE [3]: 52.83 u/L
ALKALINE PHOSPHATASE [3]: 370 u/L
ASPARTATE AMINOTRANSFERASE [3]: 100.5 u/L
BLOOD UREA NITROGEN [3]: 15.17 mg/dL
CARBON DIOXIDE [3]: 28.83 mmol/L
CHOLESTEROL [3]: 69.5 mg/dL
CREATINE PHOSPHOKINASE [3]: 488.67 u/L
CREATININE [3]: 0.23 mg/dL
GLUCOSE [3]: 165 mg/dL
LACTATE DEHYDROGENASE [3]: 502.17 u/L
LIPASE [3]: 11 u/L
PHOSPHORUS [3]: 11.7 mg/dL
POTASSIUM [3]: 5.85 MEQ/L
TOTAL BILIRUBIN [3]: 0.18 mg/dL
